Results as given in patent publication US20230135894A1, “MK2 DEGRADERS AND USES THEREOF” (Kymera Therapeutics, Inc., priority 2021, published 2023).

Key:
[1] = target: T1, MK2 (Homo sapiens, UniProt P49137); assay: MK2 degradation in human THP-1 monocytic cells (MSD, 24 h); format: cell-based; design: endogenous in cells; settings: for Dmax: THP-1, THP-1 cells; for DC50: THP-1 cells, read-out: MK2 MSD THP-1 degradation 24 h GMean External Abs DC50
Experimental: MK2 Degradation in Human THP-1 Monoctyic Cells
(§1) The human monocytic cancer cell line THP-1 (ATCC (TIB-202)) was cultured in 96 well plates (Corning 3894) at a density of 200,000 cells per well in 100 microlitres in complete growth medium of RPMI 1640 (Gibco) pus 10% fetal Bovine Serum (Corning) and Penicillin/Streptomycin (SolarBio) at 37 degrees Celsius and 5% CO2. A serial dilution of each compound (usually 3 to 5 fold serial dilutions up to 10 separate concentration points) was added to individual wells from a 10 millimolar stock solution, at a background concentration of 0.1% DMSO and the cells were shaken at 600 rpm for 5 minutes and then were cultured for 24 hours at 37 degrees Celsius and 5% carbon dioxide. Separately, a custom MSD (MesoScaleDiscovery, L15XA-3) plate for detection of human MK2 was prepared by coating the plate with the commercial AbCam ab247272 reagent in 1×Phosphate Buffered Saline at 40 microlitres per well and incubated at 4 degrees Celsius overnight. The next day, the MSD plate was washed with 150 microlitres of Tween buffered saline, blocked with MSD blocking buffer (3% Blocker A from MSD), and washed again.
(§2) The cell plate was centrifuged at 3,200 g for 5 minutes and the supernatant was discarded and 100 microlitres of RIPA lysis buffer (containing proteinase inhibitors, Boston BioProducts BP-115D) was added and the plate was sealed and shaken on ice for 20 minutes. The plate was centrifuged as before and 70 microlitres of sample lysate was added to the MSD plates and they were shaken at room temperature for 1 hour at 600 rpm. The MSD plate was washed 3 times as before and then the primary MK2 detection antibody (Santa Cruz sc-100393) was added at a final concentration of 1 microgram per ml at 25 microlitres per well and shaken at room temperature for 1 hour at 600 rpm.
(§3) After 3 more washes, the secondary detection antibody (SULFO-Tag anti rabbit antibody R32AB-5) was added at a final concentration of 1 microgram per ml at 25 microlitres per well and shaken at room temperature for 1 hour at 600 rpm. After 3 more washes, the 1×MSD (diluted from 5× concentrate with water) reading buffer was added at 150 microlitres per well and read on the MSD instrument Meso Sector S 600.
(§4) The inhibition/degradation curves and DC50 values were plotted and calculated using XL Fit (version v5.3.1.3) using equation 201 and a 4 parameter logistic model whereby fit=(A+((B−A)/(1+((x/C)D))) where A is the Bottom and B is the Top and C is the IC50 and D is the slope and high C is the signal for the DMSO treated cells and Low C is the signal is the signal for the lysis buffer.

[2] = target: T1, MK2; assay: MK2 degradation in human SW1353 cells (MSD, 24 h); format: cell-based; design: endogenous in cells; host or cells: SW-1353 (ATCC HTB-94); settings: for Dmax: read-out: MK2 MSD SW 1353 24 h Dmax %; for DC50: read-out: MK2 MSD SW1353 degradation 24 h GMean External Abs DC50
Experimental: MK2 Degradation in Human SW1353 Cells
as §1, with “chondrocyte” for “monocytic”, “SW-1353 (ATCC(HTB-94))” for “THP-1 (ATCC (TIB-202))”, “Leibovitz's L-15 Medium” for “RPMI 1640”, “Celsius.” for “Celsius and 5% CO2.”, “Celsius.” for “Celsius and 5% carbon dioxide.”
as §2, §3, §4

T1 sequence (P49137 whole entry): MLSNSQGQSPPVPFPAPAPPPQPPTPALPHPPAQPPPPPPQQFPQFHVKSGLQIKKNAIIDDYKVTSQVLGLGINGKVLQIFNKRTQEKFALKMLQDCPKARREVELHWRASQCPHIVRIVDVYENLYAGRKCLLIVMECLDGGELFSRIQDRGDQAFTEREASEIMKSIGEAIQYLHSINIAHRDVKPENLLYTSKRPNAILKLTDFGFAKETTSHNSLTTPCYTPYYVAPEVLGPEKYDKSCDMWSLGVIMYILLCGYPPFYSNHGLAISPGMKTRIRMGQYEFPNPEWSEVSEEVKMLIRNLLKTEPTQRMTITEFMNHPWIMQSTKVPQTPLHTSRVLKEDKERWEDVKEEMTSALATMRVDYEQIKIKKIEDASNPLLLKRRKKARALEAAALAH

Row | Dmax [1] [%] | DC50 [1] [nM] | Dmax [2] [%] | DC50 [2] [nM] | Structure (SMILES)
1 | > 75 | < 1 | > 75 | 1 to 10 | C[C@@H]1CNc2c(sc3ccc4nc(-c5cncc(C6CCN(CCCCCCCCc7cccc8c7n(C)c(=O)n8C7CCC(=O)NC7=O)CC6)c5)ccc4c23)C(=O)N1 (stereo partly drawn) [Compound I-103]
2 | > 75 | 1 to 10 | > 75 | 10 to 100 | C[C@@H]1CNc2c(sc3ccc4nc(-c5cccc(C6CCN(CCN7CCC(CCc8cccc9c8n(C)c(=O)n9C8CCC(=O)NC8=O)CC7)CC6)c5)ccc4c23)C(=O)N1 (stereo partly drawn) [Compound I-104]
3 | > 75 | < 1 | > 75 | 1 to 10 | C[C@@H]1CNc2c(sc3ccc4nc(-c5cccc(N6CCN(CCN7CCC(CCc8cccc9c8n(C)c(=O)n9C8CCC(=O)NC8=O)CC7)CC6)c5)ccc4c23)C(=O)N1 (stereo partly drawn) [Compound I-105]
4 | > 75 | < 1 | > 75 | 1 to 10 | C[C@@H]1CNc2c(sc3ccc4nc(-c5cccc(N6CCC(CN7CCC(CCc8cccc9c8n(C)c(=O)n9C8CCC(=O)NC8=O)CC7)CC6)c5)ccc4c23)C(=O)N1 (stereo partly drawn) [Compound I-106]
5 | > 75 | < 1 | > 75 | 1 to 10 | C[C@@H]1CNc2c(sc3ccc4nc(-c5cccc(N6CCC(CN7CCN(CCc8cccc9c8n(C)c(=O)n9C8CCC(=O)NC8=O)CC7)CC6)c5)ccc4c23)C(=O)N1 (stereo partly drawn) [Compound I-107]
6 | > 75 | < 1 | > 75 | < 1 | C[C@@H]1CNc2c(sc3ccc4nc(-c5cccc(N6CCN(CCCc7ccc8c(c7)n(C)c(=O)n8C7CCC(=O)NC7=O)CC6)c5)ccc4c23)C(=O)N1 (stereo partly drawn) [Compound I-118]
7 | > 75 | < 1 | > 75 | < 1 | C[C@@H]1CNc2c(sc3ccc4nc(-c5ccc(N6CCC(CN7CCC(c8ccc9c(c8)n(C)c(=O)n9C8CCC(=O)NC8=O)CC7)CC6)cc5)ccc4c23)C(=O)N1 (stereo partly drawn) [Compound I-119]
8 | > 75 | 1 to 10 | > 75 | 1 to 10 | Cn1c(=O)n(C2CCC(=O)NC2=O)c2cccc(N3CCC(CN4CCN(c5ccc(-c6cc(-c7cc8c([nH]7)CCNC8=O)ccn6)cc5)CC4)CC3)c21 (stereo not drawn) [Compound I-120]
9 | < 50 | > 100 | < 50 | > 100 | Cn1c(=O)n(C2CCC(=O)NC2=O)c2ccc(CCCN3CCN(c4cccc(-c5ccc(-c6cc7c([nH]6)CCNC7=O)cn5)c4)CC3)cc21 (stereo not drawn) [Compound I-121]
10 | > 75 | < 1 | > 75 | < 1 | C[C@@H]1CNc2c(sc3ccc4nc(-c5ccc(C6CCN(CC7CCN(c8cccc9c8n(C)c(=O)n9C8CCC(=O)NC8=O)CC7)CC6)nc5)ccc4c23)C(=O)N1 (stereo partly drawn) [Compound I-122]
11 | > 75 | < 1 | > 75 | < 1 | C[C@@H]1CNc2c(sc3ccc4nc(-c5ccc(N6CCN(CC7CCN(c8cccc9c8n(C)c(=O)n9C8CCC(=O)NC8=O)CC7)CC6)nc5)ccc4c23)C(=O)N1 (stereo partly drawn) [Compound I-125]
12 | > 75 | 1 to 10 | > 75 | 1 to 10 | C[C@@H]1CNc2c(sc3ccc4nc(-c5ccc(N6CCN(CC7CCN(c8cccc9c8n(C)c(=O)n9C8CCC(=O)NC8=O)CC7)CC6)cc5)ccc4c23)C(=O)N1 (stereo partly drawn) [Compound I-126]
13 | > 75 | 1 to 10 | > 75 | 1 to 10 | C[C@@H]1CNc2c(sc3ccc4nc(-c5ccc(N6CCN(CCC7CCN(c8cccc9c8n(C)c(=O)n9C8CCC(=O)NC8=O)CC7)CC6)cc5)ccc4c23)C(=O)N1 (stereo partly drawn) [Compound I-127]
14 | > 75 | 1 to 10 | > 75 | 1 to 10 | C[C@@H]1CNc2c(sc3ccc4nc(-c5ccc(N6CCC(CCN7CCN(c8cccc9c8n(C)c(=O)n9C8CCC(=O)NC8=O)CC7)CC6)cc5)ccc4c23)C(=O)N1 (stereo partly drawn) [Compound I-128]
15 | > 75 | < 1 | > 75 | < 1 | C[C@@H]1CNc2c(sc3ccc4nc(-c5ccc(N6CCN(CC7CCN(c8ccc9c(c8)n(C)c(=O)n9C8CCC(=O)NC8=O)CC7)CC6)nc5)ccc4c23)C(=O)N1 (stereo partly drawn) [Compound I-129]
16 | > 75 | < 1 | > 75 | < 1 | C[C@@H]1CNc2c(sc3ccc4nc(-c5ccc(N6CCN(CC7CCN(c8ccc9c(c8)n(C)c(=O)n9C8CCC(=O)NC8=O)CC7)CC6)cc5)ccc4c23)C(=O)N1 (stereo partly drawn) [Compound I-130]
17 | > 75 | < 1 | > 75 | < 1 | C[C@@H]1CNc2c(sc3ccc4nc(-c5ccc(N6CCC(CCN7CCN(c8ccc9c(c8)n(C)c(=O)n9C8CCC(=O)NC8=O)CC7)CC6)cc5)ccc4c23)C(=O)N1 (stereo partly drawn) [Compound I-131]
18 | < 50 | > 100 | < 50 | > 100 | Cn1c(=O)n(C2CCC(=O)NC2=O)c2cccc(CCCN3CCN(c4ccc(F)c(-c5cc(-c6cc7c([nH]6)CCNC7=O)ccn5)c4)CC3)c21 (stereo not drawn) [Compound I-133]
19 | < 50 | > 100 | < 50 | > 100 | Cn1c(=O)n(C2CCC(=O)NC2=O)c2cccc(CCCCCN3CCN(c4ccc(F)c(-c5cc(-c6cc7c([nH]6)CCNC7=O)ccn5)c4)CC3)c21 (stereo not drawn) [Compound I-134]
20 | < 50 | > 100 | < 50 | > 100 | Cn1c(=O)n(C2CCC(=O)NC2=O)c2cccc(CCCCCCCN3CCN(c4ccc(F)c(-c5cc(-c6cc7c([nH]6)CCNC7=O)ccn5)c4)CC3)c21 (stereo not drawn) [Compound I-135]
21 | > 75 | 1 to 10 | > 75 | < 1 | Cn1c(=O)n(C2CCC(=O)NC2=O)c2cccc(C3CCN(CC4CCN(c5ccc(-c6cc(-c7cc8c([nH]7)CCNC8=O)ccn6)c(F)c5)CC4)CC3)c21 (stereo not drawn) [Compound I-137]
22 | > 75 | < 1 | > 75 | < 1 | Cn1c(=O)n(C2CCC(=O)NC2=O)c2cccc(N3CCC(CN4CCN(c5ccc(-c6cc(-c7cc8c([nH]7)CCNC8=O)ccn6)cn5)CC4)CC3)c21 (stereo not drawn) [Compound I-138]
23 | > 75 | < 1 | > 75 | 1 to 10 | Cn1c(=O)n(C2CCC(=O)NC2=O)c2cccc(N3CCC(CCN4CCN(c5ccc(-c6cc(-c7cc8c([nH]7)CCNC8=O)ccn6)cc5)CC4)CC3)c21 (stereo not drawn) [Compound I-139]
24 | > 75 | < 1 | > 75 | < 1 | Cn1c(=O)n(C2CCC(=O)NC2=O)c2ccc(N3CCC(CN4CCN(c5ccc(-c6cc(-c7cc8c([nH]7)CCNC8=O)ccn6)cn5)CC4)CC3)cc21 (stereo not drawn) [Compound I-141]
